In assay [1] the test system is HAP1 MTAP-deleted cell line. Nature of the assay: Viability assay, HAP1 MTAP-deleted cell line. Type of assay: cell-based. As to conditions: Homo sapiens; viability assay, HAP1 MTAP-deleted cell line; read-out: Hap1 MTAP deleted viability IC50.
Assay [2] concerns SDMA in HAP1 MTAP-deleted (MTAP-null) cell line (PRMT5 inhibition). Nature of the assay: SDMA in-cell western assay, HAP1 MTAP-deleted cell line. The conditions noted are these: for IC50 / IC90: Homo sapiens; for IC50: HAP1, read-out: Hap1 MTAP deleted IC50; for IC90: HAP1, read-out: Hap1 MTAP deleted IC90; for Hap1 MTAP intact/deleted ratio: ratio of SDMA IC50 in HAP1 MTAP-intact to HAP1 MTAP-deleted cell line.

For assay [3], the system named is SDMA in HAP1 MTAP-intact cell line (PRMT5 inhibition). Nature of the assay: SDMA in-cell western assay, HAP1 MTAP-intact cell line. The conditions noted are these: Homo sapiens, HAP1, read-out: Hap1 MTAP intact IC50.

Molecules are shown by their SMILES. Some results are limits rather than exact numbers.

In general, IC50 refers to the point on the concentration scale where inhibition reaches its midpoint. What is called IC90 is the point of the concentration-response curve where the effect stands at 90%. Take `CC[C@H](C)CN(Cc1ccccc1C)C(=O)C(=O)Nc1cnc(N)c2cn[nH]c12` [Compound 60, (S)—N^1-(4-amino-1H-pyrazolo[4,3-c]pyridin-7-yl)-N^2-(2-methylbenzyl)-N^2-(2-methylbutyl)oxalamide]: the figures for the IC50 in assay [1], in assay [2] and in assay [3] were below 100 nM, below 5 nM and 5 to 50 nM, respectively. Moreover, in assay [2], the IC90 is below 75 nM. The “Hap1 MTAP intact/deleted ratio” value in assay [2] is “A (IC50 ratio greater than or equal to 30 fold)”.

With `CC[C@@H](C)CN(Cc1ccccc1C)C(=O)C(=O)Nc1cnc(N)c2cn[nH]c12` [Compound 62, (R)—N^1-(4-amino-1H-pyrazolo[4,3-c]pyridin-7-yl)-N^2-(2-methylbenzyl)-N^2-(2-methylbutyl)oxalamide], in assay [1], the IC50 was below 100 nM. Moreover, in assay [2], the IC50 is below 5 nM, the IC90 is below 75 nM and the “Hap1 MTAP intact/deleted ratio” value is listed as “A (IC50 ratio greater than or equal to 30 fold)”. Moreover, the IC50 in assay [3] lay within 5 to 50 nM.

For `CC[C@H](C)CN(Cc1ccc(C(F)(F)F)cn1)C(=O)C(=O)Nc1cnc(N)c2cn[nH]c12` [Compound 64, (S)—N^1-(4-amino-1H-pyrazolo[4,3-c]pyridin-7-yl)-N^2-(2-methylbutyl)-N^2-((5-(trifluoromethyl)pyridin-2-yl)methyl)oxalamide], in assay [1], the 50% inhibitory concentration (IC50) is below 100 nM. In assay [2], the IC50 is below 5 nM, the IC90 is below 75 nM and the “Hap1 MTAP intact/deleted ratio” value is “C (IC50 ratio of less than 15 fold)”. The IC50 in assay [3] is below 5 nM.

Regarding `Nc1ncc(NC(=O)C(=O)N(Cc2ccccc2)Cc2ncc(F)cc2Cl)c2[nH]ncc12` [Compound 65, N-(4-amino-1H-pyrazolo[4,3-c]pyridin-7-yl)-N′-benzyl-N′-[(3-chloro-5-fluoro-2-pyridyl)methyl]oxamide], the IC50 in assay [1] is below 100 nM. Moreover, in assay [2], the IC50 was below 5 nM, the concentration for an effect of 90% (IC90) was below 75 nM and the “Hap1 MTAP intact/deleted ratio” value is listed as “C (IC50 ratio of less than 15 fold)”. The IC50 in assay [3] was in the range of 5 to 50 nM.

On to `Nc1ncc(NC(=O)C(=O)N(Cc2ccccc2)Cc2ccc(F)cn2)c2[nH]ncc12` [Compound 68, N-(4-amino-1H-pyrazolo[4,3-c]pyridin-7-yl)-N′-benzyl-N′-[(5-fluoro-2-pyridyl)methyl]oxamide], for which the 50% inhibitory concentration (IC50) in assay [1] is below 100 nM. Moreover, in assay [2], the IC50 was below 5 nM, the IC90 is below 75 nM and the “Hap1 MTAP intact/deleted ratio” value was “A (IC50 ratio greater than or equal to 30 fold)”. Further, in assay [3], the half-maximal inhibitory concentration (IC50) was above 50 nM.

On to `CCN(C(=O)C(=O)Nc1cnc(N)c2cn[nH]c12)[C@@H](C)c1ccc(C(F)(F)C(F)(F)F)cc1C` [Compound 69, (S)—N^1-(4-amino-1H-pyrazolo[4,3-c]pyridin-7-yl)-N^2-ethyl-N^2-(1-(2-methyl-4-(perfluoroethyl)phenyl)ethyl)oxalamide], for which the IC50 in assay [1] was below 100 nM. In addition, in assay [2], the IC50 lay in the range of 5 to 50 nM, the IC90 was below 75 nM and the “Hap1 MTAP intact/deleted ratio” value is “B (IC50 ratio greater than or equal to 15 fold but lower than 30 fold)”. For the same compound, in assay [3], the IC50 is above 50 nM.

In the case of `CCN(C(=O)C(=O)Nc1cnc(N)c2cn[nH]c12)[C@H](C)c1ccc(C(F)(F)F)cc1C` [Compound 70, (R)—N^1-(4-amino-1H-pyrazolo[4,3-c]pyridin-7-yl)-N^2-ethyl-N^2-(1-(2-methyl-4-(trifluoromethyl)phenyl)ethyl)oxalamide], the IC50 in assay [1] is below 100 nM. For the same compound, in assay [2], the half-inhibitory concentration (IC50) is below 5 nM, the IC90 was below 75 nM and the “Hap1 MTAP intact/deleted ratio” value was “C (IC50 ratio of less than 15 fold)”. For the same compound, the IC50 in assay [3] fell in the range of 5 to 50 nM.

In the case of `Cc1cc(F)ccc1CN(CC(C)C)C(=O)C(=O)Nc1cnc(N)c2cn[nH]c12` [Compound 71, N-(4-amino-1H-pyrazolo[4,3-c]pyridin-7-yl)-N′-[(4-fluoro-2-methyl-phenyl)methyl]-N′-isobutyl-oxamide], in assay [1], the IC50 is below 100 nM. Besides, in assay [2], the IC50 was below 5 nM, the IC90 is below 75 nM and the “Hap1 MTAP intact/deleted ratio” value is reported as “A (IC50 ratio greater than or equal to 30 fold)”. In assay [3], the IC50 is above 50 nM.

In the case of `CCN(Cc1ccc(C(F)(F)F)cc1F)C(=O)C(=O)Nc1cnc(N)c2cn[nH]c12` [Compound 72, N-(4-amino-2H-pyrazolo[4,3-c]pyridin-7-yl)-N′-ethyl-N′-[[2-fluoro-4-(trifluoromethyl)phenyl]methyl]oxamide], the IC50 in assay [1] is below 100 nM; in assay [2], below 5 nM; in assay [3], 5 to 50 nM. The IC90 in assay [2] was below 75 nM. For the same compound, the “Hap1 MTAP intact/deleted ratio” value in assay [2] was “A (IC50 ratio greater than or equal to 30 fold)”.

For `CC(C)N(Cc1ccccc1C(F)(F)F)C(=O)C(=O)Nc1cnc(N)c2cn[nH]c12` [Compound 73, N-(4-amino-1H-pyrazolo[4,3-c]pyridin-7-yl)-N′-isopropyl-N′-[[2-(trifluoromethyl)phenyl]methyl]oxamide], the concentration for half-maximal inhibition (IC50) in assay [1] is below 100 nM. In addition, in assay [2], the half-inhibitory concentration (IC50) was below 5 nM, the IC90 is below 75 nM and the “Hap1 MTAP intact/deleted ratio” value was “B (IC50 ratio greater than or equal to 15 fold but lower than 30 fold)”. The IC50 in assay [3] lay within 5 to 50 nM.

As to `CC[C@@H](C)CN(Cc1ccc(C(F)(F)F)cn1)C(=O)C(=O)Nc1cnc(N)c2cn[nH]c12` [Compound 75, (R)—N^1-(4-amino-1H-pyrazolo[4,3-c]pyridin-7-yl)-N^2-(2-methylbutyl)-N^2-((5-(trifluoromethyl)pyridin-2-yl)methyl)oxalamide], the IC50 in assay [1] was below 100 nM. Further, in assay [2], the IC50 was below 5 nM, the IC90 was below 75 nM and the “Hap1 MTAP intact/deleted ratio” value is recorded as “C (IC50 ratio of less than 15 fold)”. The IC50 in assay [3] lay within 5 to 50 nM.

Consider `Cc1ccccc1CN(Cc1ccc(C(F)(F)F)cn1)C(=O)C(=O)Nc1cnc(N)c2cn[nH]c12` [Compound 76, N-(4-amino-1H-pyrazolo[4,3-c]pyridin-7-yl)-N′-(o-tolylmethyl)-N′-[[5-(trifluoromethyl)-2-pyridyl]methyl]oxamide], for which, in assay [1], the IC50 is below 100 nM. Also, in assay [2], the IC50 is below 5 nM, the IC90 was below 75 nM and the “Hap1 MTAP intact/deleted ratio” value is reported as “C (IC50 ratio of less than 15 fold)”. Also, the half-maximal inhibitory concentration (IC50) in assay [3] lay within 5 to 50 nM.

Turning to `Nc1ncc(NC(=O)C(=O)N(Cc2ccccn2)Cc2ccc(F)cc2Cl)c2[nH]ncc12` [Compound 77, N-(4-amino-1H-pyrazolo[4,3-c]pyridin-7-yl)-N′-[(2-chloro-4-fluoro-phenyl)methyl]-N′-(2-pyridylmethyl)oxamide], in assay [1], the IC50 is below 100 nM. For the same compound, in assay [2], the IC50 is below 5 nM, the IC90 was below 75 nM and the “Hap1 MTAP intact/deleted ratio” value is “B (IC50 ratio greater than or equal to 15 fold but lower than 30 fold)”. In assay [3], the IC50 was 5 to 50 nM.

For the compound `C[C@@H](c1ccc(C(F)(F)F)cc1)N(C)C(=O)C(=O)Nc1cnc(N)c2c1cnn2C` [Compound 79, N-(7-Amino-1-methyl-pyrazolo[3,4-c]pyridin-4-yl)-N′-methyl-N′—[(1S)-1-[4-(trifluoromethyl)phenyl]ethyl]oxamide], the IC50 in assay [1] is 100 to 1000 nM. Moreover, in assay [2], the IC50 lay in the range of 5 to 50 nM, the IC90 was above 125 nM and the “Hap1 MTAP intact/deleted ratio” value is “A (IC50 ratio greater than or equal to 30 fold)”. Moreover, the IC50 in assay [3] was above 50 nM.

For the compound `C[C@H](c1ccc(C(F)(F)C(F)(F)F)cc1)N(C)C(=O)C(=O)Nc1cnc(N)c2c1cnn2C` [Compound 81, N-(7-Amino-1-methyl-pyrazolo[3,4-c]pyridin-4-yl)-N′-methyl-N′—[(1R)-1-[4-(1,1,2,2,2-pentafluoroethyl)phenyl]ethyl]oxamide], the IC50 in assay [1] is below 100 nM. In assay [2], the IC50 was below 5 nM, the IC90 was below 75 nM and the “Hap1 MTAP intact/deleted ratio” value was “A (IC50 ratio greater than or equal to 30 fold)”. The IC50 in assay [3] is 5 to 50 nM.

With `C[C@@H](c1ccc(C(F)(F)F)cc1F)N(C)C(=O)C(=O)Nc1cnc(N)c2c1cnn2C` [Compound 82, N-(7-Amino-1-methyl-pyrazolo[3,4-c]pyridin-4-yl)-N′-methyl-N′—[(1S)-1-[2-fluoro-4-(trifluoromethyl)phenyl]ethyl]oxamide], the IC50 in assay [1] was 100 to 1000 nM. Further, in assay [2], the IC50 was in the range of 5 to 50 nM, the IC90 was above 125 nM and the “Hap1 MTAP intact/deleted ratio” value was “B (IC50 ratio greater than or equal to 15 fold but lower than 30 fold)”. For the same compound, the IC50 in assay [3] was above 50 nM.

Turning to `C[C@@H](c1ccc(C(F)(F)C(F)(F)F)cc1)N(C)C(=O)C(=O)Nc1cnc(N)c2c1cnn2C` [Compound 83, N-(7-Amino-1-methyl-pyrazolo[3,4-c]pyridin-4-yl)-N′-methyl-N′—[(1S)-1-[4-(1,1,2,2,2-pentafluoroethyl)phenyl]ethyl]oxamide], in assay [1], the IC50 fell in the range of 100 to 1000 nM. Also, in assay [2], the IC50 lay within 5 to 50 nM, the IC90 is above 125 nM and the “Hap1 MTAP intact/deleted ratio” value is recorded as “A (IC50 ratio greater than or equal to 30 fold)”. Besides, the IC50 in assay [3] is above 50 nM.

On to `C[C@H](c1ccc(C(F)(F)F)cc1F)N(C)C(=O)C(=O)Nc1cnc(N)c2c1cnn2C` [Compound 84, N-(7-Amino-1-methyl-pyrazolo[3,4-c]pyridin-4-yl)-N′-methyl-N′—[(1R)-1-[2-fluoro-4-(trifluoromethyl)phenyl]ethyl]oxamide], for which the IC50 in assay [1] is below 100 nM. In addition, in assay [2], the IC50 is below 5 nM, the IC90 is below 75 nM and the “Hap1 MTAP intact/deleted ratio” value was “A (IC50 ratio greater than or equal to 30 fold)”. Further, the IC50 in assay [3] lay within 5 to 50 nM.
